Reference: patent publication US9119808B1, “Treating neurodegenerative diseases with GGA or a derivative thereof” (COYOTE PHARMACEUTICALS, INC., priority 2012, dated 2015)

Columns and labels:
[1] = test system: HSP70 expression in Neuro2A cells; test: HSP70 expression by Western blot in treated Neuro2A cells (Assay 1a/1b); assay type: cell-based, murine; details: for HSP70 Expression, HSP70 by Western Blot: Neuro2A cells, Assay 1a screen at 1 μM
Procedure: HSP70 expression in neuro2A cells treated with CNS-102 analogs are examined, using Western blot analysis. An increased expression of HSP70 will indicate the candidate molecule has the prerequisite activity. This assay has a Z factor of […] and a CV of 11% for CNS-102 at 1 nM to 100 nM.
A preliminary screen and quantitative performance evaluation, and a confirmatory neuroprotective assay are developed from a model of motor neuron dysfunction in a PNS cell line.
The overall strategy, therefore, is to use a sequence of assays, each of which is targeted to address a specific aspect of the disease with the goal of identifying candidates having multiple therapeutic capabilities. These assays are chosen such that a failure to perform at any stage is expected to be fatal to the candidate's suitability as a viable ALS treatment. To this end, the following four therapeutic capabilities and corresponding assays were chosen as shown in the list below. The advancement criteria, as well as assay design where relevant, are also presented. • 1. In some embodiments, the candidates increase HSP70 expression in target cells. The initial screen (pass/fail, Assay 1a) and quantitative evaluation (EC50, Assay 1b) of candidates will use a HSP70 expression assay by Western blot on cellular extracts of treated Neuro2A cells. The screen, Assay 1a, is conducted at a single concentration, requiring a specific level of activity to pass into Assay 1b, the quantitative dose/response determination of the EC50. Only those candidates having an ECK, below 10 nM would be promoted to Assay 2. • 2. In some embodiments, the candidates increase neuronal cell health/growth in the presence of specific inhibitors of GGTase I. The ability of candidates to promote neurite extension will be measured on Neuro2A cells to model whole-cell activities important to synaptic connections and neuronal function. […] Neuroprotection afforded by candidates that have passed the first two assays will be determined on rat hippocampal neurons facing kainic acid induced damage. […] This confirmation will be determined in the SOD1 mouse model.

[2] = test system: neuro2A neuroblastoma cell lines; test: Neurite outgrowth in Neuro2A cells challenged with GGTase I inhibitor GGTI-298 (Assay 2); assay type: cell-based, murine; details: @ 10 nM, GGTI-298 challenge
Procedure: Neurite outgrowth in neuro2A neuroblastoma cell lines has been widely used as a cellular model for compounds screening in the CNS drug discovery and research. IN some embodiments, the effects of CNS-102 analogs on neurite outgrowth is determined. Cells will be pre-treated with candidates and then subjected to a challenge with GGTase I inhibitor GGTI-298. Retinoic Acid will be added to start the differentiation of these cells. This will identify analogs that protect neurite outgrowth, which is known to be important for establishing synaptic connections and neuronal functions. This assay has a Z factor of 0.4 and a CV of 11% for CNS-102 at 10 nM to 1 μM.
(§1) The overall strategy, therefore, is to use a sequence of assays, each of which is targeted to address a specific aspect of the disease with the goal of identifying candidates having multiple therapeutic capabilities. These assays are chosen such that a failure to perform at any stage is expected to be fatal to the candidate's suitability as a viable ALS treatment. To this end, the following four therapeutic capabilities and corresponding assays were chosen as shown in the list below. The advancement criteria, as well as assay design where relevant, are also presented. • 1. In some embodiments, the candidates increase HSP70 expression in target cells. The initial screen (pass/fail, Assay 1a) and quantitative evaluation (EC50, Assay 1b) of candidates will use a HSP70 expression assay by Western blot on cellular extracts of treated Neuro2A cells. The screen, Assay 1a, is conducted at a single concentration, requiring a specific level of activity to pass into Assay 1b, the quantitative dose/response determination of the EC50. Only those candidates having an ECK, below 10 nM would be promoted to Assay 2. • 2. In some embodiments, the candidates increase neuronal cell health/growth in the presence of specific inhibitors of GGTase I. The ability of candidates to promote neurite extension will be measured on Neuro2A cells to model whole-cell activities important to synaptic connections and neuronal function. Candidates showing >200 cells with outgrowth would be promoted to Assay 3. • 3. In some embodiments, the candidates provide protection to nerve tissue from excitotoxins. Neuroprotection afforded by candidates that have passed the first two assays will be determined on rat hippocampal neurons facing kainic acid induced damage. This is the final animal model before the ALS disease model and candidates that provide >50% protection would be tested in the disease model. • 4. In some embodiments, the candidates increase median survival time by 25% and improve neurological performance compared to control. This confirmation will be determined in the SOD1 mouse model.

[3] = test system: rat hippocampal neurons; test: Rat neuroprotection model, kainic acid induced excitotoxic neuron loss in hippocampus (Assay 3); assay type: in vivo; details: for Rat Neuroprotection, % Protection: kainic acid rat model, 2 or 20 mg/kg
Procedure: Excitotoxicity has been considered as one of the major causes for neuron loss in ALS. A probable cause for excitotoxic neuron death is excess glutamate around the synapses, due to impaired glutamate reuptake capabilities. Intra-cerebral infusion of kainic acid is a well-established and robust model for excitotoxic neuron death that has been used to investigate excitotoxicity for over fifty years. Compounds are tested, e.g., at two concentrations and compare to a vehicle control in a model that quantifies neuron loss in the CA3 area of the hippocampus. Such tests can evaluate blood brain barrier penetration and select compounds that provide neuroprotection from excitotoxic damage.
as §1

[4] = test system: cultured spinal neurons; details: low concentration (1 nM-100 nM); cited from earlier work
[5] = test system: SOD1 mouse model of ALS; test: SOD1 mouse model of ALS: survival and cat-walk gait (Assay 4); assay type: in vivo; details: for Run Duration, CNS-102-vehicle difference of averages / Stride Length, CNS-102-vehicle difference of averages / Swing Speed, CNS-102-vehicle difference of averages: cat-walk
Procedure: Analyses were conducted using PROC LIFEREG in SAS.
Additionally, three neurological function outcomes were chosen for analysis from those measured on a ‘cat-walk’ at irregular intervals over the duration of the study; stride length (cm), run duration (s), and swing speed (cm/s).
This non-random censoring of the treatment group data precluded using standard comparative statistical methods such as the t-test due the unverifiable compliance of the remaining data with required statistical test assumptions. Consequently, a Monte Carlo estimate of the p-value of the treatment differences was constructed using the bootstrap method.
Survival studies and behavioral tests will be performed in the SOD1 G93A model of ALS. This transgenic mouse harbors a point mutation (G93A), found in familial ALS, in the gene encoding for superoxide dismutase 1 (SOD1). This very well characterized mouse model is widely used in ALS research. […] Motor neuron death in the ventral horn of the spinal cord and loss of myelinated axons in the ventral motor roots lead to paralysis and muscle wasting. Mice initially develop normally and gain weight until approximately 100 days of age. At this point, weight loss (which is usually defined as the onset of disease), muscle weakness, and gradual paralysis start at the hind limbs and muscle wasting start to appear. […] This means that drug efficacy studies using this model can be performed within a relatively short time frame of 4-5 months. To rigorously test the efficacy of candidates in this mouse model, neurological scores are monitored, and motor scores, life span, body weight and mice tested in a battery of behavioral paradigms suitable for motor assessment.

[6] = biological target: GGTase I (Homo sapiens, UniProt P53609); test: GGTase I activity detected by fluorescent peptide dansyl-GCVLL; assay type: biochemical
[7] = Water solubility; assay type: physicochemical
Text: The chemical structure of CNS-102 is shown. We have characterized CNS-102 (MW 330) by ^1H NMR, LC, and ESI mass spectrometry and no evidence of cis isomer was found. […] Such can enable CNS-102 to cross the blood brain barrier.

[8] = Bioavailability and brain penetration; details: in vivo
[9] = test system: SOD1 G93A; details: pre-symptomatic administration or treatment at disease onset; cited from earlier work

CC/C(=C\CCC(=O)C12CC3CC(CC(C3)C1)C2)CC/C=C(\C)CC/C=C(\C)CCC=C(C)C [CNS-G001]
HSP70 Expression, HSP70 by Western Blot [1]: 2.00 × PBS | Neurite Outgrowth, Cell count relative to negative control [2]: 1.79 | Rat Neuroprotection, % Protection [3]: 37%

CC(C)=CCC/C(C)=C/CC/C(C)=C/CC/C(C)=C/CC1CCCCC1=O (stereo not drawn) [CNS-G005]
HSP70 Expression, HSP70 by Western Blot [1]: 2.78 × PBS | Neurite Outgrowth, Cell count relative to negative control [2]: 2.28 | Rat Neuroprotection, % Protection [3]: 83%

CCCCCNC(=O)OC(C)CC/C=C(\C)CC/C=C(\C)CCC=C(C)C (stereo not drawn) [CNS-G002]
Neurite Outgrowth, Cell count relative to negative control [2]: 1.79

geranylgeranyl acetone [GGA]
proteasome inhibitor induced neurotoxicity [4]: reduce proteasome inhibitor induced neurotoxicity

CC(=O)CC/C=C(\C)CC/C=C(\C)CC/C=C(\C)CC/C=C(\C)CCC=C(C)C [CNS-G003]
Neurite Outgrowth, Cell count relative to negative control [2]: 2.74 | Rat Neuroprotection, % Protection [3]: 82%

CC(C)=CCC/C(C)=C/CC/C(C)=C/CC/C(C)=C/COC(=O)C1CCCCC1 [CNS-G004]
Neurite Outgrowth, Cell count relative to negative control [2]: 2.61 | Rat Neuroprotection, % Protection [3]: 76%

CC(=O)CC/C=C(\C)CC/C=C(\C)CC/C=C(\C)CCC=C(C)C [CNS-102, 5E,9E,13E-geranylgeranylacetone]
expression of HSPs ([1]; murine Neuro2A cells, HSP70 and HSP90 found): increases expression of HSPs | Neurite Outgrowth, Cell count relative to negative control [2]: 2.00 | time of peak protection ([3]; hippocampus, locally injected kainic acid, following a single oral dose): 72 h | Rat Neuroprotection, % Protection [3]: 40% | expression of HSPs ([3]; rat kainic acid induced neurotoxicity model, HSP70 in hippocampus and cerebral cortex, HSP60, HSP70, HSP90 upregulated): increases expression of HSPs | SOD1 Mouse Model, Survival and clinical scores: increase in survival ([5]; SOD1 mouse model): 9% increase | Increase over vehicle (median survival time) ([5]; SOD1 mouse model, daily treatments, N=16/treatment): 9% | improvement in median survival, CNS-102 outperformed riluzole by ([5]; SOD1 mouse model, difference between drug groups not statistically significant at p=0.05): 50% | Run Duration, CNS-102-vehicle difference of averages ([5]; age P120 ± 1): -1.68 s | Stride Length, CNS-102-vehicle difference of averages ([5]; age P120 ± 1): 1.46 cm | Swing Speed, CNS-102-vehicle difference of averages ([5]; age P120 ± 1): 14.58 cm/s | Run Duration, CNS-102-vehicle difference of averages ([5]; age P124 ± 3): -1.49 s | Stride Length, CNS-102-vehicle difference of averages ([5]; age P124 ± 3): 1.87 cm | Swing Speed, CNS-102-vehicle difference of averages ([5]; age P124 ± 3): 11.70 cm/s | GGTase I activity [6]: modulates GGTase I activity | intrinsic water solubility [7]: little intrinsic water solubility | bioavailability and brain penetration [8]: excellent

[O-][n+]1cccc(/C(Cl)=N/OC[C@H](O)CN2CCCCC2)c1 [arimoclomol]
extension of life span [9]: approximately 5 weeks
